According to patent publication US20070043064A1, “7-Substituted 3-nitro-pyrazo[1,5-a] pyrimidines” (FERRER INTERNACIONAL S.A., priority 2003, published 2007):
Where two headings read alike, the source gives them in different places.

Legend:
α1-GABAA receptor = target: T1, α1-GABAA receptor (Rattus norvegicus, UniProt P62813); experiment: Ligand-binding assay, radiolabeled flumazenil competition, cerebellum membranes
T1 construct: the cerebellum (tissue that mostly contains α1-GABAA receptor); from tissue; host or cells: rat cerebellum membranes
Method: (§1) Ligand-Binding Assays. Determination of the Affinity of Test Compounds for α1- and α2-GABAA Receptors.
(§2) Male Sprague-Dawley rats weighing 200-250 g at the time of experiment were used. After decapitation of the animal, the cerebellum (tissue that mostly contains α1-GABAA receptor) and spinal cord (tissue that mostly contains α2-GABAA receptor) were removed. The membranes were prepared according to the method by J. Lameh et al. (Prog. Neuro-Psychopharmacol. Biol. Psychiatry, 24, 979-991, 2000). Once the tissues weighed, they were suspended in 50 mM Tris HCl buffer, pH 7.7, (1:40 v/v), homogenized and then centrifuged at 20000 g for 10 min at 7° C. The resulting pellet was resuspended under the same conditions and centrifuged again. The final pellet obtained was resuspended on a minimum volume and kept at −80° C. overnight. On the next day, the process was repeated until the final pellet was resuspended at a ratio of 1:10 (v/v).
(§3) The affinity of the compounds was determined by competitive tests using radiolabeled flumazenil as ligand. The methods described by S. Arbilla et al. (Eur. J. Pharmacol., 130, 257-263, 1986); and Y. Wu et al. (Eur. J. Pharmacol., 278, 125-132, 1995) were used. The membranes containing the study receptors, flumazenil (radiolabeling at a final concentration of 1 nM) and ascending concentrations of test compounds (in a total volume of 500 μl in […] [ph 7.4] Tris HCl buffer) were incubated. Simultaneously, the membranes were only incubated with the radiolabeled flumazenil (total binding, 100%) and in the presence of an elevated concentration of unradiolabeled flumazenil (non-specific binding, % estimate of radiolabeled ligand). The reactions started on adding the radiolabeled ligand followed by incubation for 60 minutes at 0° C. At the end of the incubation period, the tubes were filtered using a Brandel Mod. M-48R harvester and then washed three times with cold test buffer. The harvester was fitted with a GF/B filter that retained the membranes containing the receptors and the radiolabeled ligand which had been bound to the receptors. Then the filters were removed and left till dry. Once dried, the filters were cut, placed in vials with scintillation liquid and left under stirring overnight. The next day the filters were counted using a Packard Mod. Tricarb scintillation counter.
(§4) T: total binding, maximum amount bound to the radiolabeled ligand. N: Non-specific binding, amount of radiolabeled ligand bound in a non-specific way irrespective of the receptor used.
(§5) Every concentrations of compound were tested in duplicate and their mean values were used to determine the experimental values of % specific binding versus the concentration of compound. […] Inhibition constants (Ki) were calculated from the IC50 values according to Cheng-Prusoff's formula (Y. Cheng y W. H. Prusoff, Biochem. Pharmacol., 22(23), 3099-3108, 1973).

male CD1 mice = experiment: Predictive sedation-hypnosis test in mice (motor activity, crossings); assay type: in vivo; settings: single equimolecular intraperitoneal dose, crossings over 30 min after dosing (first 5 min discarded) versus control animals
Method: In Vivo Determination of Predictive Sedative-Hypnotic Action.
The in vivo effects of these compounds were assessed by a predictive sedation-hypnosis test in mice (D. J. Sanger et al., Eur. J. Pharmacol., 313, 35-42, 1996; and G. Griebel et al., Psychopharmacology, 146, 205-213, 1999).
Groups of 5-8 male CD1 mice, weighing 22-26 g at the time of test, were used. The test compounds were administered in single equimolecular intraperitoneal doses, suspended in 0.25% agar with one drop of Tween in a volume of 10 ml/kg. Control animals received the vehicle alone. Using an Actisystem DAS16 (Panlab, S. L., Spain) the crossings (number of counts) were recorded for each mouse at 5-min intervals during a period of 30 minutes after dosing. The inhibition percentage of crossings of treated animals versus control animals (the first 5 min were discarded) was calculated.

α2-GABAA receptor = α2-GABAA receptor (Rattus norvegicus, UniProt P18508+P23576); experiment: Ligand-binding assay, radiolabeled flumazenil competition, spinal cord membranes; settings: for inhibition at 10 µM: compound at 10^−5M; for inhibition at 0.1 µM: compound at 10^−7M
Method: as §1, §2, §3, §4, §5

[1] = read-out: Affinity for α1-GABAA receptor, Ki

SMILES | melting point [°C] | Ki (α1-GABAA receptor) [nM] | % Inhibition Motor Activity (male CD1 mice) [%] | also measured
CCCCN(c1cccc(-c2ccnc3c([N+](=O)[O-])cnn23)c1)S(=O)(=O)c1ccccc1 | 159 to 160 | – | – | –
CCCN(c1cccc(-c2ccnc3c([N+](=O)[O-])cnn23)c1)S(C)(=O)=O [Example 25, N-[3-(3-nitro-pyrazolo[1,5-a]pyrimidin-7-yl)-phenyl]-N-(n-propyl)-methanesulfonamide] | 165 to 167 | 102 | 61.06 | –
CC(C)S(=O)(=O)N(C)c1cccc(-c2ccnc3c([N+](=O)[O-])cnn23)c1 [Example 35, N-[3-(3-nitro-pyrazolo[1,5-a]pyrimidin-7-yl)-phenyl]-N-methyl-propane-2-sulfonamide] | – | 41.2 | 91.21 | inhibition at 10 µM (α2-GABAA receptor): 91.5%; inhibition at 0.1 µM (α2-GABAA receptor): 18.9%
CCCCN(c1cccc(-c2ccnc3c([N+](=O)[O-])cnn23)c1)S(=O)(=O)c1ccc(OC)cc1 | 189 to 190 | – | – | –
CC(=O)N(C)c1cccc(-c2ccnc3c([N+](=O)[O-])cnn23)c1 [Example 2, N-methyl-N-[3-(3-nitro-pyrazolo[1,5-a]pyrimidin-7-yl)-phenyl]-acetamide] | – | 96.8 | 77.25 | –
CCCN(C(C)=O)c1cccc(-c2ccnc3c([N+](=O)[O-])cnn23)c1 [Example 3, N-[3-(3-nitro-pyrazolo[1,5-a]pyrimidin-7-yl)-phenyl]-N-(n-propyl)-acetamide] | – | – | 61.68 | Ki (α1-GABAA receptor; [1]): 110 nM
C#CCN(C(C)=O)c1cccc(-c2ccnc3c([N+](=O)[O-])cnn23)c1 [Example 5, N-[3-(3-nitro-pyrazolo[1,5-a]pyrimidin-7-yl)-phenyl]-N-(2-propynyl)-acetamide] | – | 38.6 | 79.06 | –
O=[N+]([O-])c1cnn2c(-c3cccc(N4CCCS4(=O)=O)c3)ccnc12 [Example 34, 7-(3-(2-isothiazolidinyl-1,1-dioxide)-phenyl)-3-nitro-pyrazolo[1,5-a]pyrimidine] | – | – | 64.23 | Ki (α1-GABAA receptor; [1]): 165 nM; inhibition at 10 µM (α2-GABAA receptor): 86.9%; inhibition at 0.1 µM (α2-GABAA receptor): 4.3%
O=[N+]([O-])c1cnn2c(-c3cccs3)ccnc12 | 235 to 237 | – | – | –
CCN(C(C)=O)c1cccc(-c2ccnc3c([N+](=O)[O-])cnn23)c1 [Example 1, N-ethyl-N-[3-(3-nitro-pyrazolo[1,5-a]pyrimidin-7-yl)-phenyl]-acetamide] | 176 to 178 | 88.6 | 77.25 | –
CCS(=O)(=O)N(C)c1cccc(-c2ccnc3c([N+](=O)[O-])cnn23)c1 [Example 32, N-[3-(3-nitro-pyrazolo[1,5-a]pyrimidin-7-yl)-phenyl]-N-methyl-ethanesulfonamide] | – | 31 | 91.57 | inhibition at 10 µM (α2-GABAA receptor): 89%; inhibition at 0.1 µM (α2-GABAA receptor): 21%
O=[N+]([O-])c1cnn2c(-c3ccc(C(F)(F)F)cc3)ccnc12 | 191 to 193 | – | – | –
CCN(C(C)=O)c1cccc(-c2ccnc3c(C#N)cnn23)c1 [Zaleplon, zaleplon, reference compound] | – | – | 47.17 | inhibition at 10 µM (α2-GABAA receptor): 78.4%
CCN(c1cccc(-c2ccnc3c([N+](=O)[O-])cnn23)c1)S(=O)(=O)c1ccc(OC)cc1 | 209 to 211 | – | – | –
O=[N+]([O-])c1cnn2c(-c3ccccc3C(F)(F)F)ccnc12 | 195 to 197 | – | – | –
CCCN(c1cccc(-c2ccnc3c([N+](=O)[O-])cnn23)c1)S(=O)(=O)c1ccccc1 | 154 to 156 | – | – | –
CN(c1cccc(-c2ccnc3c([N+](=O)[O-])cnn23)c1)S(C)(=O)=O [Example 18, N-methyl-N-[3-(3-nitro-pyrazolo[1,5-a]pyrimidin-7-yl)-phenyl]-methanesulfonamide] | – | 28.3 | 68.55 | –
CCN(c1cccc(-c2ccnc3c([N+](=O)[O-])cnn23)c1)S(C)(=O)=O [Example 15, N-ethyl-N-[3-(3-nitro-pyrazolo[1,5-a]pyrimidin-7-yl)-phenyl]-methanesulfonamide] | – | 11.1 | – | –
O=[N+]([O-])c1cnn2c(-c3cccc(C(F)(F)F)c3)ccnc12 [Example 8, 3-nitro-7-(3-trifluoromethyl-phenyl)-pyrazolo[1,5-a]pyrimidine] | 159 to 161 | – | 69.08 | Ki (α1-GABAA receptor; [1]): 623 nM
C#CCN(c1cccc(-c2ccnc3c([N+](=O)[O-])cnn23)c1)S(C)(=O)=O [Example 28, N-[3-(3-nitro-pyrazolo[1,5-a]pyrimidin-7-yl)-phenyl]-N-(prop-2-inyl)-methanesulfonamide] | – | 11.7 | 94.19 | inhibition at 10 µM (α2-GABAA receptor): 96.4%; inhibition at 0.1 µM (α2-GABAA receptor): 29%
O=C1CCCN1c1cccc(-c2ccnc3c([N+](=O)[O-])cnn23)c1 | 226 to 228 | – | – | –
CCCCN(c1cccc(-c2ccnc3c([N+](=O)[O-])cnn23)c1)S(C)(=O)=O | 153 to 155 | – | – | –
O=[N+]([O-])c1cnn2c(-c3ccncc3)ccnc12 | 241 to 244 | – | – | –
CCCN(c1cccc(-c2ccnc3c([N+](=O)[O-])cnn23)c1)S(=O)(=O)c1ccc(OC)cc1 | 184 to 185 | – | – | –
COc1ccc(S(=O)(=O)N(C)c2cccc(-c3ccnc4c([N+](=O)[O-])cnn34)c2)cc1 | 205 to 206 | – | – | –
C#CCN(c1cccc(-c2ccnc3c([N+](=O)[O-])cnn23)c1)S(=O)(=O)C(C)C [Example 31, N-[3-(3-nitro-pyrazolo[1,5-a]pyrimidin-7-yl)-phenyl]-N-(n-prop-2-inyl)-propane-2-sulfonamide] | – | 48.5 | 94.31 | inhibition at 10 µM (α2-GABAA receptor): 81.3%; inhibition at 0.1 µM (α2-GABAA receptor): 4.2%
O=[N+]([O-])c1cnn2c(-c3ccco3)ccnc12 | 235 to 237 | – | – | –
O=[N+]([O-])c1cnn2c(-c3cccnc3)ccnc12 | 302 to 303 | – | – | –
